Patent US20240002499A1, “ANTI-CLIC1 PROTEIN ANTIBODIES AND THE DIAGNOSTIC AND THERAPEUTIC USES THEREOF” (Universita' Degli Studi di Milano, priority 2020, published 2024)
“Also recorded” adds a separate entry of the source.

What was measured:
[1] = tested on: human glioblastoma cells; assay: ROS production in human glioblastoma cells in primary culture; type: cell-based
Method: In the subsequent functional experiment, ROS production was measured over time. The graph in FIG. 11 relates to the acquisition of fluorescence signals proportional to the amount of cytoplasmic ROS in glioblastoma cells. The cells were treated with both the antibody and the tmCLIC1 channel blocker.

[2] = tested on: COLO201; assay: COLO201 spheroids, 3D culture; type: cell-based; conditions: treated 24 to 96 hours, area normalized on initial area
Method: To evaluate whether tmCLIC1omab is able to penetrate across tumor spheroids, a 3D culture was performed. After the complete formation of spheroids, treatments were added and the area was measured every 24 hours up to 96 hours. The area at each time point was then normalized on the initial spheroids' area.
Spheroids were formed with hanging-drop method and then plated in rounded 96 plates coated with 5% of agar. After the complete formation of spheroids, treatments were added and the area was measured every 24 hours up to 96 hours. The area at each time point was then normalized on the initial spheroids' area.

[3] = tested on: tumour cells; conditions: both in vitro and in vivo; cited from earlier work
[4] = biological target: T1, CLIC1 (Homo sapiens, UniProt O00299); assay: Whole-cell patch clamp on HEK cells transfected with CLIC1 plasmid; type: cell-based; conditions: HEK cells overexpressing CLIC1; voltage steps from −60 to +80 mV; IAA94 50 μM
T1 construct: expressed in transfected cells; host or cells: HEK cells
Method: FIG. 17. Current/voltage relationship of CLIC1 membrane current in whole-cell patch clamp experiments. HEK cells were transfected with CLIC1 plasmid to overexpress the CLIC1 protein. After recording control current (filled cycles; n=5) cells were perfused alternatively with the polyclonal antibody (open triangles; n=7), tmCLIComab (inverse open triangles; n=10) and with 50 μM IAA94 (filled squared; n=11). The whole cells current is expressed as a current density.
The reference sequence of the CLIC1 protein used in the experiments described in the present patent application is filed at UniProt under number UniProtKB—000299 (CLIC1 human), and described in the article Harrop S. J. et al., “Crystal structure of a soluble form of the intracellular chloride ion channel CLIC1 (NCC27) at 1.4-Å Resolution”; The Journal of Biological Chemistry, Vol. 276 No. 48, November 30, pp. 44993-45000 (2001).
The potential was set on the basis of the resting potential of each cell (between 0 and −80 mV). The CLIC1-mediated chlorine currents were isolated from other ion currents by mathematical subtraction of the residual current following perfusion of 100 μM IAA94 dissolved in the external solution.

[5] = tested on: pMAP38; assay: Western blot of phosphorylated MAP38 in COLO201; type: cell-based; conditions: COLO201, 72 h of treatment
[6] = tested on: human glioblastoma cells; assay: Growth curves of human glioblastoma cells in primary culture; type: cell-based; conditions: glioblastoma cells, FIG. 9
Text: The primary glioblastoma cell lines, already tested for stem cell properties and carcinogenicity, were kindly supplied by Professor T. Florio's laboratory at Genoa University (Genoa, Italy). The cells were obtained from a surgical biopsy performed in the Neurosurgery Department of IRCCS-AOU San Martino IST (Genoa, Italy), from patients who had not received any treatment before the operation. The samples were histologically classified as GB grade IV (according to the WHO classification), and were used after obtaining the patients' informed consent and the approval of the Institutional Ethics Committee (IEC). The cells were cultured in stem cell-permissive medium consisting of Dulbecco's Modified Eagle's Medium (DMEM) and F12-GlutaMAX at the ratio of 1:1, supplemented with 1×B27 (Thermo Fisher Scientific), […] of fibroblast growth factor (FGF, Miltenyi Biotec), […] of human epidermal growth factor (EGF, Miltenyi Biotec) and 1% penicillin/streptomycin (Pen/Strep, […]) (Thermo Fisher Scientific).
The cells were seeded in 24-well plates (20,000 cells/well) and counted after 24, 48, 72 and 96 hours to construct the growth curve. The cells were collected and centrifuged, and the resuspended pellet was diluted 1:1 with Trypan Blue. An automated counter (Countess II, Thermo Fisher Scientific) was used to count the cells. All data were normalized to their controls.

[7] = biological target: T2, tmCLIC1 ion channel (Mus musculus, UniProt Q9Z1Q5); assay: Whole-cell patch clamp on BV2 microglial cells with β-amyloid; type: cell-based, mice; conditions: blocker perfused after tmCLIC1omab
T2 construct: endogenous in cells; host or cells: BV-2 mouse microglial cell line
Text: The microglial cells used (BV-2) originated from an immortalised cell line deriving from C57BL/6 mice and commonly marketed. The culture medium used was RPMI (Thermo Fisher Scientific) with the addition of 10% FBS (Euroclone) and 1% Pen/Strep ([…], Thermo Fisher Scientific).
The microelectrodes were obtained from borosilicate capillaries with a diameter of 1.5 mm. Micropipettes were produced with a P-97 Brown-Flaming puller (Sutter Instruments, Novato, CA), with which the capillaries were forged to a tip diameter of 1-1.5 μm and electrical resistance of 5-8 MΩ.
The perforated patch clamp configuration was used for the whole-cell experiments, employing the antibiotic gramicidin (final concentration in pipette 5 μg/ml) which forms pores in the membrane that are only permeable to monovalent cations; in this way, the cytoplasmic concentration of the chloride ion remains unchanged throughout the experiment. The ion currents were digitised at 5 kHz and filtered at 1 kHz. Clampex 9.2 was used as the data acquisition and analysis programme.
In the time-course experiments, the potential was set on the basis of the resting potential of each cell, and a voltage step of +60 mV was applied every 5 seconds. The current measured is that observed at the end of the voltage step lasting 800 ms. When the amplitude of the current reaches a constant value, the antibody and IAA94 are added in sequence. […]

[8] = tested on: COLO201; assay: Trans well migration and invasion assay; type: cell-based; conditions: COLO201 WT, 72 h
Method: The overexpression of tmCLIC1 in the most aggressive cell lines of colorectal cancer and its pivotal role in regulation of cell cycle progression and proliferation, opens a question on the function of tmCLIC1 activity on migration and invasion potential of CRCs, that makes colorectal cancer still uncurable. We performed a Trans well assay to understand whether CLIC1 impairment could affect the migration and invasion potential of COLO201. Cells were plated after 60 hours of serum deprivation on a porous membrane, permeable only to growth factor, in contact to complete medium. The resulting chemo-attractant gradient leads the migrative cells to cross the membranes that are then stained with DAPI to visualize the nuclei. […] For invasion assays, we coated with Matrigel the porous membrane to mimic the extracellular matrix that cells must disrupt to invade tissues and mucosa.
Cells were plated after 60 hours of serum deprivation on a […] porous membrane, permeable only to growth factor, in contact to complete medium. Membranes were cut, stained with DAPI dye, and included with mowiol. Cover glasses were examined under Zeiss Examiner A1 fluorescence microscope with a Zeiss 40×/0.75 NA water immersion lens.

[9] = tested on: Metalloproteinase 7 (MMP7); assay: Western blot of Metalloproteinase 7 in COLO201; type: cell-based; conditions: COLO201, 72 h of treatment
[10] = cited from earlier work

C[C@]1(C2CCCC2)Cc2cc(OCC(=O)O)c(Cl)c(Cl)c2C1=O [IAA94, R(+)-[(6,7-dichloro-2-cyclopentyl-2,3-dihydro-2-methyl-1-oxo-1H-inden-5-yl)-oxy]acetic acid, reference compound]
fall in ROS production ([1]; FIG. 11 legend, versus control): about fourfold
reduction of the slope of the ROS increase curve ([1]; fluorescence signals proportional to cytoplasmic ROS): about fivefold
spheroids' area / proliferation of spheroids versus control [2]: significantly smaller compared to the control from 48 h; also recorded: impair proliferation of spheroids significantly after 48 hours
proliferation of the tumour cells [3]: drastic slowing
inhibition of CLIC1 ionic whole-cell current [4]: maximum inhibition
expression of pMAP38 [5]: downregulated
growth rate compared with Clic1−/− knockout cells [6]: the same growth rate
further decrease in membrane current after antibody treatment [7]: only generates a minimal decrease in current
migration (number of migrative nuclei) versus control [8]: significant lower number of migrative nuclei
invasion (number of invasive nuclei) versus control ([8]; Matrigel-coated membrane): the same behavior seen for migration assay
expression of Metalloproteinase 7 [9]: mainly abolished
usability in vivo / side effects [10]: unusable in vivo for its side effects
